Experimental data: ChEMBL document CHEMBL1795338, “Identification of pentacyclic triterpenes derivatives as potent inhibitors against glycogen phosphorylase based on 3D-QSAR studies” (Eur J Med Chem, 2011)

Molecular target: T1, Glycogen phosphorylase, muscle form (Oryctolagus cuniculus, UniProt P00489)
T1 sequence (P00489 whole entry): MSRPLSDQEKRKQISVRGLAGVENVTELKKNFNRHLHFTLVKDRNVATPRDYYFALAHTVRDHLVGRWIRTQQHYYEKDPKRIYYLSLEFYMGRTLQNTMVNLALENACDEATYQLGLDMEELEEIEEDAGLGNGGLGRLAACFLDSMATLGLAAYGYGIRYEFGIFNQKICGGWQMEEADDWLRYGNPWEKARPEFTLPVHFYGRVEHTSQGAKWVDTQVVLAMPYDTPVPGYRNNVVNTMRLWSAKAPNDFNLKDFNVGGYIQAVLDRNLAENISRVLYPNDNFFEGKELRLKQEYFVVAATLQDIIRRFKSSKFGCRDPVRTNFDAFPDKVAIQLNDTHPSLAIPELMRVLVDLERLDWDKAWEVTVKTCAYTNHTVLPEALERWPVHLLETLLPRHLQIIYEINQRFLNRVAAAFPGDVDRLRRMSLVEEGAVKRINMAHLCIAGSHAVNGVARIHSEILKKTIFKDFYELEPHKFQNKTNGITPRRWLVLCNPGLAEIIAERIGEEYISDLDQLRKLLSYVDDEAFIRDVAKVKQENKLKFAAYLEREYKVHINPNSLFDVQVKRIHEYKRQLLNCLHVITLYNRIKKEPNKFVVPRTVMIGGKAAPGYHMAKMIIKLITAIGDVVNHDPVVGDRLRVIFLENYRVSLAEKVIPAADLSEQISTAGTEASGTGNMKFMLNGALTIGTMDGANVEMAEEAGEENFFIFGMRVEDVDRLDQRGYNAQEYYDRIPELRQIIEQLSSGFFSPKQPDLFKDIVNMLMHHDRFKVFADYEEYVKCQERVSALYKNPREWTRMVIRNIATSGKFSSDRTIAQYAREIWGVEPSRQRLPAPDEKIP
Assay: Inhibition of rabbit muscle glycogen phosphorylase A assessed as release of phosphate from glucose-1-phosphate after 25 mins by microplate reader based method

CC1(C)CC[C@]2(C(=O)O)CC[C@]3(C)C(=CC[C@@H]4[C@@]5(C)Cc6nonc6C(C)(C)[C@@H]5CC[C@]43C)[C@@H]2C1 showed an IC50 of 11.2 µM.
Work on CCN(CC)CC(=O)O[C@H]1CC[C@]2(C)[C@H]3CC=C4[C@@H]5CC(C)(C)CC[C@]5(C(=O)OCc5ccccc5)CC[C@@]4(C)[C@]3(C)CC[C@H]2C1(C)C yielded an IC50 of 20.1 µM.
With C[C@H]1[C@H](C)CC[C@]2(C(=O)OCCBr)CC[C@]3(C)C(=CC[C@@H]4[C@@]5(C)CC[C@H](O)C(C)(C)[C@@H]5CC[C@]43C)[C@H]12 the IC50 was 10.2 µM.
For C[C@H]1[C@H](C)CC[C@]2(C(=O)OCC(=O)O)CC[C@]3(C)C(=CC[C@@H]4[C@@]5(C)CC[C@H](O)C(C)(C)[C@@H]5CC[C@]43C)[C@H]12, the IC50 was 188 µM.
In the case of CC1(C)CC[C@]2(C(=O)OCc3ccccc3)CC[C@]3(C)C(=CC[C@@H]4[C@@]5(C)Cc6cn(Cc7ccc(Cl)cc7Cl)nc6C(C)(C)[C@@H]5CC[C@]43C)[C@@H]2C1, the IC50 is reported as 179 µM.
CCOC(=O)[C@]12CC[C@@H](C)[C@H](C)[C@H]1C1=CC[C@@H]3[C@@]4(C)C[C@@H](O)[C@H](O)C(C)(C)[C@@H]4CC[C@@]3(C)[C@]1(C)CC2 gave an IC50 of 46.7 µM.
Work on COCc1cn(CCCCCCn2cc(CO[C@H]3CC[C@]4(C)[C@H]5CC=C6[C@@H]7CC(C)(C)CC[C@]7(C(=O)O)CC[C@@]6(C)[C@]5(C)CC[C@H]4C3(C)C)nn2)nn1 yielded an IC50 of 2.59 µM.
Compound CC1(C)CC[C@]2(C(=O)OCc3ccccc3)CC[C@]3(C)C(=CC[C@@H]4[C@@]5(C)CC6C=NOC6C(C)(C)[C@@H]5CC[C@]43C)[C@@H]2C1 (stereo partly drawn) has an IC50 of 19.6 µM.
For C[C@H]1[C@H](C)CC[C@]2(C(=O)O)CC[C@]3(C)C(=CC[C@@H]4[C@@]5(C)Cc6cn[nH]c6C(C)(C)[C@@H]5CC[C@]43C)[C@H]12, the IC50 was 40.4 µM.
With CC1(C)CC[C@]2(C(=O)OCc3ccccc3)CC[C@]3(C)C(=CC[C@@H]4[C@@]5(C)CC(=O)[C@H](O)C(C)(C)[C@@H]5CC[C@]43C)[C@@H]2C1 the IC50 was 52.9 µM.
C[C@H]1[C@H](C)CC[C@]2(C(=O)OCCNC3CCCCC3)CC[C@]3(C)C(=CC[C@@H]4[C@@]5(C)CC[C@H](O)C(C)(C)[C@@H]5CC[C@]43C)[C@H]12 was tested, and the IC50 was 25.6 µM.
CC1(C)CC[C@]2(C(=O)OCc3ccccc3)CC[C@]3(C)C(=CC[C@@H]4[C@@]5(C)Cc6cn(CC(=O)O)nc6C(C)(C)[C@@H]5CC[C@]43C)[C@@H]2C1 was tested, and the IC50 was 47.1 µM.
With C[C@H]1[C@H](C)CC[C@]2(C(=O)OCc3ccccc3)CC[C@]3(C)C(=CC[C@@H]4[C@@]5(C)C[C@H](O)[C@H](O)C(C)(C)[C@@H]5CC[C@]43C)[C@H]12 the IC50 was 108 µM.
Work on CC1(C)CC[C@]2(C(=O)O)CC[C@]3(C)C(=CC[C@@H]4[C@@]5(C)Cc6nc7ccccc7nc6C(C)(C)[C@@H]5CC[C@]43C)[C@@H]2C1 yielded an IC50 of 14 µM.
Cc1ccc(-n2ncc3c2C(C)(C)[C@@H]2CC[C@]4(C)[C@H](CC=C5[C@@H]6CC(C)(C)CC[C@]6(C(=O)OCc6ccccc6)CC[C@]54C)[C@@]2(C)C3)cc1 was tested, and the IC50 was 106 µM.
Compound CCC(=O)n1cc2c(n1)C(C)(C)[C@@H]1CC[C@]3(C)[C@H](CC=C4[C@@H]5CC(C)(C)CC[C@]5(C(=O)O)CC[C@]43C)[C@@]1(C)C2 has an IC50 of 37.2 µM.
In the case of CCOC(=O)COC(=O)[C@]12CC[C@@H](C)[C@H](C)[C@H]1C1=CC[C@@H]3[C@@]4(C)C[C@@H](O)[C@H](O)C(C)(C)[C@@H]4CC[C@@]3(C)[C@]1(C)CC2, the IC50 is reported as 102 µM.
For CC1(C)CC[C@]2(C(=O)OCc3ccccc3)CC[C@]3(C)[C@H]([C@H](O)C[C@@H]4[C@@]5(C)CC[C@H](O)C(C)(C)[C@@H]5CC[C@]43C)[C@@H]2C1, the IC50 was 5.35 µM.
In the case of C[C@H]1[C@H](C)CC[C@]2(C(=O)O)CC[C@]3(C)C(=CC[C@@H]4[C@@]5(C)C[C@H](O)CC(C)(C)[C@@H]5CC[C@]43C)[C@H]12, the IC50 is reported as 20.6 µM.
In the case of COC(=O)[C@H](Cc1ccc(OCc2cn(CC(=O)O[C@H]3CC[C@]4(C)[C@H]5CC=C6[C@@H]7CC(C)(C)CC[C@]7(C(=O)OCc7ccccc7)CC[C@@]6(C)[C@]5(C)CC[C@H]4C3(C)C)nn2)cc1)NC(=O)OC(C)(C)C, the IC50 is reported as 17.5 µM.
C[C@H]1[C@H](C)CC[C@]2(C(=O)OCc3ccccc3)CC[C@]3(C)C(=CC[C@@H]4[C@@]5(C)C[C@@H](O)[C@H](O)C(C)(C)[C@@H]5CC[C@]43C)[C@H]12 gave an IC50 of 41.2 µM.
For CCCOC(=O)[C@@]1(C)[C@@H]2CC[C@]3(C)[C@H](CC=C4[C@@H]5[C@@H](C)[C@H](C)CC[C@]5(C(=O)O)CC[C@]43C)[C@@]2(C)C[C@@H](OC(=O)CCC)[C@@H]1OC(=O)CCC, the IC50 was 10 µM.
Compound CC(=O)O[C@H]1CC[C@]2(C)[C@H]3CC=C4[C@@H]5[C@@H](C)[C@H](C)CC[C@]5(C(=O)OC[C@H](O)[C@H]5OC(=O)C(O)=C5O)CC[C@@]4(C)[C@]3(C)CC[C@H]2C1(C)C has an IC50 of 1.53 µM.
In the case of COc1ccc(/C=C\C(=O)O[C@H]2CC[C@]3(C)[C@H]4CC=C5[C@@H]6CC(C)(C)CC[C@]6(C(=O)O)CC[C@@]5(C)[C@]4(C)CC[C@H]3C2(C)C)cc1, the IC50 is reported as 16.9 µM.
C[C@H]1[C@H](C)CC[C@]2(C(=O)OCc3ccccc3)CC[C@]3(C)C(=CC[C@@H]4[C@@]5(C)C[C@@H](O)C(=O)C(C)(C)[C@@H]5CC[C@]43C)[C@H]12 was tested, and the IC50 was 31.8 µM.
With CC(=O)n1cc2c(n1)C(C)(C)[C@@H]1CC[C@]3(C)[C@H](CC=C4[C@@H]5CC(C)(C)CC[C@]5(C(=O)O)CC[C@]43C)[C@@]1(C)C2 the IC50 was 53.8 µM.
For CCC(=O)O[C@@H]1C[C@]2(C)[C@H]3CC=C4[C@@H]5[C@@H](C)[C@H](C)CC[C@]5(C(=O)O)CC[C@@]4(C)[C@]3(C)CC[C@H]2C(C)(C)[C@H]1OC(=O)CC, the IC50 was 73.7 µM.
Compound Cn1cc2c(n1)C(C)(C)[C@@H]1CC[C@]3(C)[C@H](CC=C4[C@@H]5CC(C)(C)CC[C@]5(C(=O)OCc5ccccc5)CC[C@]43C)[C@@]1(C)C2 has an IC50 of 188 µM.
With CC1(C)CC[C@]2(C(=O)OCc3ccccc3)CC[C@]3(C)[C@H]([C@@H](O)C[C@@H]4[C@@]5(C)CC[C@H](O)C(C)(C)[C@@H]5CC[C@]43C)[C@@H]2C1 the IC50 was 6.54 µM.
For CC1(C)CC[C@]2(C(=O)OCc3ccccc3)CC[C@]3(C)C(=CC[C@@H]4[C@@]5(C)Cc6cn(C7CC7)nc6C(C)(C)[C@@H]5CC[C@]43C)[C@@H]2C1, the IC50 was 20.5 µM.
With COS(=O)(=O)[C@@H]1C[C@]2(C)[C@H]3CC=C4[C@@H]5[C@@H](C)[C@H](C)CC[C@]5(C(=O)OCc5ccccc5)CC[C@@]4(C)[C@]3(C)CC[C@H]2C(C)(C)[C@H]1O the IC50 was 43.4 µM.
Work on CC(=O)O[C@@H]1C[C@]2(C)[C@H]3CC=C4[C@@H]5[C@@H](C)[C@H](C)CC[C@]5(C(=O)O)CC[C@@]4(C)[C@]3(C)CC[C@H]2C(C)(C)[C@H]1O yielded an IC50 of 37.7 µM.
Work on CCCC(=O)O[C@@H]1C[C@]2(C)[C@H]3CC=C4[C@@H]5[C@@H](C)[C@H](C)CC[C@]5(C(=O)O)CC[C@@]4(C)[C@]3(C)CC[C@H]2C(C)(C)[C@H]1O yielded an IC50 of 77.9 µM.
Work on CC1(C)CC[C@]2(C(=O)O)CC[C@]3(C)C(=CC[C@@H]4[C@@]5(C)CC[C@H](OC(=O)CCC(=O)O)C(C)(C)[C@@H]5CC[C@]43C)[C@@H]2C1 [OLEANOLIC ACID 3-O-SUCCINATE] yielded an IC50 of 34.3 µM.
For CCCC(=O)O[C@@H]1C[C@]2(C)[C@H]3CC=C4[C@@H]5CC(C)(C)CC[C@]5(C(=O)O)CC[C@@]4(C)[C@]3(C)CC[C@H]2C(C)(C)[C@H]1OC(=O)CCC, the IC50 was 25.2 µM.
With Cc1ccc(-n2ncc3c2C(C)(C)[C@@H]2CC[C@]4(C)[C@H](CC=C5[C@@H]6CC(C)(C)CC[C@]6(C(=O)O)CC[C@]54C)[C@@]2(C)C3)cc1 the IC50 was 18.3 µM.
With C[C@H]1[C@H](C)CC[C@]2(C(=O)OCCN3CCOCC3)CC[C@]3(C)C(=CC[C@@H]4[C@@]5(C)C[C@@H](O)[C@H](O)[C@@](C)(CO)[C@@H]5CC[C@]43C)[C@H]12 the IC50 was 173 µM.
In the case of CC1(C)CC[C@]2(C(=O)OCc3ccccc3)CC[C@]3(C)C(=CC[C@@H]4[C@@]5(C)C/C(=N\O)[C@H](O)C(C)(C)[C@@H]5CC[C@]43C)[C@@H]2C1, the IC50 is reported as 179 µM.
In the case of C[C@H]1[C@H](C)CC[C@]2(C(=O)OCc3ccccc3)CC[C@]3(C)C(=CC[C@@H]4[C@@]5(C)C/C(=N\O)C(=O)C(C)(C)[C@@H]5CC[C@]43C)[C@H]12, the IC50 is reported as 82.9 µM.
In the case of CC1(C)CC[C@]2(C(=O)O)CC[C@]3(C)C(=CC[C@@H]4[C@@]5(C)C/C(=N\O)[C@H](O)C(C)(C)[C@@H]5CC[C@]43C)[C@@H]2C1, the IC50 is reported as 28.2 µM.
In the case of CC1(C)CC[C@]2(C(=O)OCc3ccccc3)CC[C@]3(C)C(=CC[C@@H]4[C@@]5(C)CC[C@H](OC(=O)Cn6cc(COC(=O)Cc7ccccc7)nn6)C(C)(C)[C@@H]5CC[C@]43C)[C@@H]2C1, the IC50 is reported as 27.7 µM.
With CC1(C)CC[C@]2(C(=O)O)CC[C@]3(C)C(=CC[C@@H]4[C@@]5(C)CCC(=O)[C@@](C)(CO)[C@@H]5CC[C@]43C)[C@@H]2C1 the IC50 was 53.5 µM.
In the case of CNCCOC(=O)[C@]12CCC(C)(C)C[C@H]1C1=CC[C@@H]3[C@@]4(C)CC[C@H](O)C(C)(C)[C@@H]4CC[C@@]3(C)[C@]1(C)CC2, the IC50 is reported as 53.2 µM.
